# Experimental data taken from patent EP1069898B1, “TOPICAL ANTISEPTIC COMPOSITIONS AND METHODS” (MARGOLIN, Solomon B., priority 1998, dated 1999).
# Tests used:
# Proteus vulgaris = test: Preliminary antimicrobial test, plate growth score; type: cell-based
# Escherichia coli = test: Preliminary antimicrobial test, plate growth score; type: cell-based
# Pseudomonas aeruginosa = test: Preliminary antimicrobial test, plate growth score; type: cell-based; design: key: 1=very slight; 2=slight; 3=slight to moderate; 4=moderate; 10=total plate growth (maximal growth)
# Bacillus subtilis = test: Preliminary antimicrobial test, plate growth score; type: cell-based
# Staphylococcus aureus = test: Preliminary antimicrobial test, plate growth score; type: cell-based
# Candida albicans = test: Preliminary antimicrobial test, plate growth score; type: cell-based; design: key: 1=very slight; 2=slight; 3=slight to moderate; 4=moderate; 10=total plate growth (maximal growth)
# Aspergillus niger = test: Preliminary antimicrobial test, plate growth score; type: cell-based
# [1] = system: Trychophton mentagrophytes; test: Preliminary antimicrobial test, plate growth score; type: cell-based; design: key: 1=very slight; 2=slight; 3=slight to moderate; 4=moderate; 10=total plate growth (maximal growth)
# [2] = Storage stability (chemical assays and physical characteristics); type: physicochemical; details: crystalline; 25 degrees Centigrade
# From the text: A critical feature of the compositions of this invention is the chemical stability of the active ingredient(s), pirfenidone and/or related compounds. Crystalline pirfenidone is stable at room temperature (i.e., 25 degrees Centigrade) for more than five years. The formulations described above are stable for two years or longer at 25 degrees Centigrade (room temperature), based upon chemical assays and upon physical characteristics (color, plasticity, active ingredient dispersion and suspension).
# [3] = Primary rabbit acute eye irritation test (Draize method); type: in vivo; details: 2.0% sterile aqueous solution, 0.1 ml. per eye; six albino rabbits; examined up to 10 days
# Method: The eyes were carefully examined at 1.0 minutes, 30 minutes, and 3 hours after applying the solution, and then repeatedly examined for 10 days after the application of the pirfenidone solution (0.1 ml. per eye).
# The eyes were carefully examined at 1, 3, 8, 24, and 48 hours and carefully re-examined daily for 10 days after the application of the ointment (100 milligrams per eye).
# [4] = Pirfenidone concentration 5.0 wt.%
# [5] = Pirfenidone concentration 10.0 wt.%
smiles,measurement,setting,value
"Cc1ccc(=O)n(-c2ccccc2)c1 [Pirfenidone, 5-methyl-1-phenyl-2-(1H) pyridone]",GROWTH SCORES (0 TO 10),Proteus vulgaris; [4],0
same,GROWTH SCORES (0 TO 10),Proteus vulgaris; [5],0
same,GROWTH SCORES (0 TO 10),Escherichia coli; [4],0
same,GROWTH SCORES (0 TO 10),Escherichia coli; [5],0
same,GROWTH SCORES (0 TO 10),Pseudomonas aeruginosa; Pirfenidone concentration 2.0 wt.%,1
same,GROWTH SCORES (0 TO 10),Pseudomonas aeruginosa; [4],0
same,GROWTH SCORES (0 TO 10),Pseudomonas aeruginosa; [5],0
same,GROWTH SCORES (0 TO 10),Bacillus subtilis; [4],0
same,GROWTH SCORES (0 TO 10),Bacillus subtilis; [5],0
same,GROWTH SCORES (0 TO 10),Staphylococcus aureus; [4],0
same,GROWTH SCORES (0 TO 10),Staphylococcus aureus; [5],0
same,GROWTH SCORES (0 TO 10),Candida albicans; [4],2
same,GROWTH SCORES (0 TO 10),Candida albicans; [5],0
same,GROWTH SCORES (0 TO 10),Aspergillus niger; [4],0
same,GROWTH SCORES (0 TO 10),Aspergillus niger; [5],0
same,GROWTH SCORES (0 TO 10),[1]; [4],2
same,GROWTH SCORES (0 TO 10),[1]; [5],0
same,stable at room temperature,[2],more than five
same,"eye irritation (hyperemia, edema, eye discomfort, chemotaxis)",[3],failed to cause any irritation
